This note sets out measurements from US10336701B2, “Pyridin-2-one derivatives of formula (II) useful as EP3 receptor antagonists” (Janssen Pharmaceutica NV, priority 2017, dated 2019).

A value given as a limit tells only on which side of the number the result lay.

The experiment concerns the target T1, EP3 receptor (Homo sapiens, UniProt P43115).
T1 construct: purchased Millipore HTS092M
T1 sequence (P43115 1-390): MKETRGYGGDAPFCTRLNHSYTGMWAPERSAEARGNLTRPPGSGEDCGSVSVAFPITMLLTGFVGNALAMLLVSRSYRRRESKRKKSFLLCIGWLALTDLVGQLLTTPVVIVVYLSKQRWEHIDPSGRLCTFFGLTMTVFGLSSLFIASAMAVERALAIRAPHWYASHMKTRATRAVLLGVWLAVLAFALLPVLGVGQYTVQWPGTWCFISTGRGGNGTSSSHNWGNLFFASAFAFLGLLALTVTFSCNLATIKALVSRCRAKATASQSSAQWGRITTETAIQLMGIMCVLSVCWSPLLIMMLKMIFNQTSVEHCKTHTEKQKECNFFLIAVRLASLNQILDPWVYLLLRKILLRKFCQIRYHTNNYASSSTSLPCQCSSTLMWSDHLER
Put plainly: [3H]-PGE2 binding assay (EP3 competition binding). To be noted: read-out: [3H]-PGE2 Binding Ki. The procedure: EP3 competition binding was determined using the following materials and experimental conditions:
Beads=Perkin Elmer RPNQ0001
EP3 membrane=Millipore HTS092M
Membrane concentration=2 μg/well
Beads concentration=0.25 mg/well
[3H]-PGE2=2 nM; DMSO—0.1%
Binding buffer=50 mM Tris, 10 mM MgCl2, 1 mM • EDTA, PH 7.4.
The binding buffer was removed from refrigeration (@ 4° C.) and allowed to warm to room temperature. Test compound (@ stock concentration of […] in DMSO) was serial dilutes (1:3) with 100% DMSO using Echo plate. Diluted test compound (30 nL) was dispensed to the 384-well assay plate (using Echo 550 Labcyte System). To each well was then added assay buffer (5 μl) and each well was spun. Beads were weighed out, dissolved in assay buffer to a concentration of 0.25 mg/15 μl. Original membrane was diluted with assay buffer to a concentration of 2 μg/5 μl. […] To each test well were then added diluted [3H]-PGE2 (5 μl), diluted membrane (5 μl), and dissolved beads (15 μl). The plate was equilibrated at room temperature on a plate shaker for 2 hours and then read with a TOPCOUNT scintillation plate reader. Results were analyzed using a Prism program with non-linear regression, one-site fit for Ki.

As to `CC(C)C(/C=C1\OC(=O)NC1=O)c1ccc(-c2ccc3cccc(C#N)c3c2)[nH]c1=O` (mixture of isomers) [compound 142, (Z)-7-(5-(1-(2,4-dioxooxazolidin-5-ylidene)-3-methylbutan-2-yl)-6-oxo-1,6-dihydropyridin-2-yl)-1-naphthonitrile], the Ki (as a rule, the dissociation constant of the complex between target and ligand, obtained from inhibition or displacement) is 121 nM.

Regarding `CCn1ncc2c(F)cc(-c3ccc([C@@]45CCC[C@@H](C4)C(=O)O5)c(=O)[nH]3)cc21` (racemic) [compound 299], the inhibitory constant (Ki) stood at 29 nM.

Take `CCn1ncc2c(F)cc(-c3[nH]c(=O)c(C(CC)(CC)c4ncco4)cc3F)cc21` [Compound #37, 6-(1-ethyl-4-fluoro-1H-indazol-6-yl)-5-fluoro-3-(3-(oxazol-2-yl)pentan-3-yl)pyridin-2(1H)-one]: the Ki was 24 nM.

For `CCn1ncc2c(F)cc(-c3ccc(C(CC)(CC)c4nnc(C(C)C)o4)c(=O)[nH]3)cc21` [Compound #38, 6-(1-ethyl-4-fluoro-1H-indazol-6-yl)-3-(3-(5-isopropyl-1,3,4-oxadiazol-2-yl)pentan-3-yl)pyridin-2(1H)-one], the Ki was found to be 13 nM.

Regarding `CCn1ncc2c(F)cc(-c3ccc(C(CC)(CC)Cc4ncco4)c(=O)[nH]3)cc21` [Compound #41, 6-(1-ethyl-4-fluoro-1H-indazol-6-yl)-3-(3-(oxazol-2-ylmethyl)pentan-3-yl)pyridin-2(1H)-one], the Ki came out at 2 nM.

For the compound `CCn1ncc2c(F)cc(-c3ccc(C(CC)(CC)c4nnc(C(F)(F)F)o4)c(=O)[nH]3)cc21` [Compound #45, 6-(1-ethyl-4-fluoro-1H-indazol-6-yl)-3-(3-(5-(trifluoromethyl)-1,3,4-oxadiazol-2-yl)pentan-3-yl)py-ridine-2(1H)-one], the inhibition constant (Ki) was found to be 59 nM.

Turning to `CCn1ncc2c(F)cc(-c3ccc(C(CC)(CC)c4nnc(N(C)C)s4)c(=O)[nH]3)cc21` [Compound #48, 3-(3-(5-(dimethylamino)-1,3,4-thiadiazol-2-yl)pentan-3-yl)-6-(1-ethyl-4-fluoro-1H-indazol-6-yl)pyridin-2(1H)-one], the Ki is 2 nM.

Take `CCn1ncc2c(F)cc(-c3ccc(C(CC)(CC)c4nnc(N)o4)c(=O)[nH]3)cc21` [Compound #51, 3-(3-(5-amino-1,3,4-oxadiazol-2-yl)pentan-3-yl)-6-(1-ethyl-4-fluoro-1H-indazol-6-yl)pyridin-2(1H)-one]: the inhibition constant (Ki) came out at 2060 nM.

On to `CCn1ncc2c(F)cc(-c3ccc(C(CC)(CC)c4nnc(N)s4)c(=O)[nH]3)cc21` [Compound #52, 3-(3-(5-amino-1,3,4-thiadiazol-2-yl)pentan-3-yl)-6-(1-ethyl-4-fluoro-1H-indazol-6-yl)pyridin-2(1H)-one], for which the Ki is 19 nM.

Take `CCc1nnc(C(CC)(CC)c2ccc(-c3cc(F)c4cnn(CC)c4c3)[nH]c2=O)o1` [Compound #53, 3-(3-(5-ethyl-1,3,4-oxadiazol-2-yl)pentan-3-yl)-6-(1-ethyl-4-fluoro-1H-indazol-6-yl)pyridin-2(1H)-one]: the Ki came out at 6 nM.

As for `CCn1ncc2c(F)cc(-c3ccc(C(CC)(CC)c4nnc(N(C)C)o4)c(=O)[nH]3)cc21` [Compound #57, 3-(3-(5-(dimethylamino)-1,3,4-oxadiazol-2-yl)pentan-3-yl)-6-(1-ethyl-4-fluoro-1H-indazol-6-yl)pyridin-2(1H)-one], the Ki worked out at 6 nM.

Consider `CCn1ncc2c(F)cc(-c3ccc(C(C(C)C)n4cnnn4)c(=O)[nH]3)cc21` (stereo not shown) [Compound #171, 6-(1-ethyl-4-fluoro-1H-indazol-6-yl)-3-(2-methyl-1-(1H-tetrazol-1-yl)propyl)pyridin-2(1H)-one], for which the Ki turned out to be 29 nM.

In the case of `CCn1ncc2c(F)cc(-c3ccc(C(C(C)C)n4cnnc4)c(=O)[nH]3)cc21` (stereo not shown) [Compound #172, 6-(1-ethyl-4-fluoro-1H-indazol-6-yl)-3-(2-methyl-1-(4H-1,2,4-triazol-4-yl)propyl)pyridin-2(1H)-one], the Ki came to 25 nM.

For `CCn1ncc2c(F)cc(-c3ccc(C(CC)(CC)c4nnc(C)o4)c(=O)[nH]3)cc21` [Compound #271, 6-(1-ethyl-4-fluoro-1H-indazol-6-yl)-3-(3-(5-methyl-1,3,4-oxadiazol-2-yl)pentan-3-yl)pyridin-2(1H)-one], the Ki was found to be 6 nM.

Take `CCC(/C=C1/OC(=O)NC1=O)(CC)c1ccc(-c2ccc3c(F)cc(F)cc3c2)[nH]c1=O` [compound 10, (E)-5-(2-(6-(5,7-difluoronaphthalen-2-yl)-2-oxo-1,2-dihydropyridin-3-yl)-2-ethylbutylidene)oxazolidine-2,4-dione]: the Ki was 28 nM.

`CCn1ncc2c(F)cc(-c3ccc(C(CC)(CC)Cc4nnc[nH]4)c(=O)[nH]3)cc21` [compound 15, 3-(3-((4H-1,2,4-triazol-3-yl)methyl)pentan-3-yl)-6-(1-ethyl-4-fluoro-1H-indazol-6-yl)pyridin-2(1H)-one]: the Ki turned out to be 7 nM.

For `CCN1CCOc2c(F)cc(-c3ccc(C(CC)(CC)CC4CCNC4=O)c(=O)[nH]3)cc21` (stereo not shown) [compound 17, 6-(4-ethyl-8-fluoro-3,4-dihydro-2H-benzo[b][1,4]oxazin-6-yl)-3-(3-((2-oxopyrrolidin-3-yl)methyl)pentan-3-yl)pyridin-2(1H)-one], the Ki was found to be 14 nM.

With `CCn1ncc2c(F)cc(-c3ccc(C(CC)(CC)Cc4ncc[nH]4)c(=O)[nH]3)cc21` [compound 20, 3-(3-((1H-imidazol-2-yl)methyl)pentan-3-yl)-6-(1-ethyl-4-fluoro-1H-indazol-6-yl)pyridin-2(1H)-one], the Ki was determined as 11 nM.

`CCC(/C=C1\OC(=O)NC1=O)(CC)c1ccc(-c2ccc3cccc(C(F)(F)F)c3c2)[nH]c1=O` [compound 23, 5-(2-ethyl-2-(2-oxo-6-(8-(trifluoromethyl)naphthalen-2-yl)-1,2-dihydropyridin-3-yl)butylidene)oxazolidine-2,4-dione]: the Ki was 228 nM.

`CCN1CCOc2c(F)cc(-c3ccc(C(/C=C4\CCNC4=O)(CC)CC)c(=O)[nH]3)cc21` [compound 25, (E)-6-(4-ethyl-8-fluoro-3,4-dihydro-2H-benzo[b][1,4]oxazin-6-yl)-3-(3-((2-oxopyrrolidin-3-ylidene)methyl)pentan-3-yl)pyridin-2(1H)-one]: the Ki is over 10000 nM.

Consider `CCC(/C=C1/OC(=O)NC1=O)(CC)c1ccc(-c2ccc3cc(F)cc(F)c3c2)[nH]c1=O` [compound 32, (E)-5-(2-(6-(6,8-difluoronaphthalen-2-yl)-2-oxo-1,2-dihydropyridin-3-yl)-2-ethylbutylidene)oxazolidine-2,4-dione], for which the Ki is 292 nM.

Turning to `CCC(CC)(c1nnc[nH]1)c1ccc(-c2ccc3c(F)cc(F)cc3c2)[nH]c1=O` [compound 33, 3-(3-(4H-1,2,4-triazol-3-yl)pentan-3-yl)-6-(5,7-difluoronaphthalen-2-yl)pyridin-2(1H)-one], the Ki was 735 nM.

Take `CCn1ncc2c(F)cc(-c3[nH]c(=O)c(C(CC)(CC)c4nnc[nH]4)cc3F)cc21` [compound 36, 3-(3-(4H-1,2,4-triazol-3-yl)pentan-3-yl)-6-(1-ethyl-4-fluoro-1H-indazol-6-yl)-5-fluoropyridin-2(1H)-one]: the Ki was 195 nM.

Turning to `CCn1ncc2c(F)cc(-c3[nH]c(=O)c(C(CC)(CC)CC4=CCNC4=O)cc3F)cc21` [compound 46, 6-(1-ethyl-4-fluoro-1H-indazol-6-yl)-5-fluoro-3-(3-((2-oxo-2,5-dihydro-1H-pyrrol-3-yl)methyl)pentan-3-yl)pyridin-2(1H)-one], the Ki was found to be 452 nM.

For the compound `CCn1ncc2c(F)cc(-c3[nH]c(=O)c(C(/C=C4\CCNC4=O)(CC)CC)cc3F)cc21` [compound 47, (E)-6-(1-ethyl-4-fluoro-1H-indazol-6-yl)-5-fluoro-3-(3-((2-oxopyrrolidin-3-ylidene)methyl)pentan-3-yl)pyridin-2(1H)-one], the Ki amounted to 25 nM.

`CCC(CC)(c1ncc[nH]1)c1ccc(-c2ccc3cc(F)cc(F)c3c2)[nH]c1=O` [compound 50, 3-(3-(1H-imidazol-2-yl)pentan-3-yl)-6-(6,8-difluoronaphthalen-2-yl)pyridin-2(1H)-one]: the Ki was 1080 nM.

For the compound `CCn1ncc2c(F)cc(-c3ccc(C(CC)(CC)CC4CCCNC4=O)c(=O)[nH]3)cc21` (stereo not shown) [compound 58, 6-(1-ethyl-4-fluoro-1H-indazol-6-yl)-3-(3-((2-oxopiperidin-3-yl)methyl)pentan-3-yl)pyridin-2(1H)-one], the Ki came out at 7 nM.

Consider `CC(C)c1cccc2ccc(-c3ccc(C(/C=C4\OC(=O)NC4=O)C(C)C)c(=O)[nH]3)cc12` (stereo not shown) [compound 135, (Z)-5-(2-(6-(8-isopropylnaphthalen-2-yl)-2-oxo-1,2-dihydropyridin-3-yl)-3-methylbutylidene)oxazolidine-2,4-dione], for which the Ki was 85 nM.
